The results in this text go back to US20220204473A1, “COMPOUND AS IRAK INHIBITOR” (SHANGHAI MEIYUE BIOTECH DEVELOPMENT CO., LTD., priority 2018, published 2022).

Each structure is given as a SMILES string.

For one data set, the target named is T1, human IRAK4 (Homo sapiens, UniProt Q9NWZ3).
T1 construct: purchased Cama (so in the source)
T1 sequence (Q9NWZ3 1-460): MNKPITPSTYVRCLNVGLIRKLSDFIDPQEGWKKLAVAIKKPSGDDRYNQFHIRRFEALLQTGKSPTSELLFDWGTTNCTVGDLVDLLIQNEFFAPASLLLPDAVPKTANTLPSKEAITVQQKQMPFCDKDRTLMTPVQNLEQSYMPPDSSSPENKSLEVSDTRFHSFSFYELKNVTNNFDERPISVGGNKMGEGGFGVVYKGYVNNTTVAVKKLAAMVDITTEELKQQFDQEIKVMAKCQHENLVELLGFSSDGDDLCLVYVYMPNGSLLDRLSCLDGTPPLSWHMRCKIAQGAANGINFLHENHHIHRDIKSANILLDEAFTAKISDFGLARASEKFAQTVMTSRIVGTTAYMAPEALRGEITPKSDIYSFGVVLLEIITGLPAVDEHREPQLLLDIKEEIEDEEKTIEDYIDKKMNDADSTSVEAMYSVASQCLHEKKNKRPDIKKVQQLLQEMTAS
Briefly: IRAK4 MSA (Mobility-Shift Assay) at Km ATP. The settings on record: GST-IRAK4 1 nM, ATP 37 μM (Km); read-out: IC50 for inhibiting human IRAK4 kinase. It counts as biochemical. Here is the method:
A recombinant fusion protein of N-terminal GST (glutathione-S-transferase) and human IRAK4 was used as enzyme (GST-IRAK4, kinase IRAK4 (Cama)) at a final concentration of 1 nM; ATP (Sigma) was at a final concentration of 37 μM; the substrates used for the kinase reaction were a 5-FAM (5-carboxyfluorescein)-labeled polypeptide (5-FAM-[…]-COOH) and a substrate peptide FAM-P8 (GL Biochem) at final concentrations of […].
In this assay, 500 μM solutions of the compounds were prepared in 100% DMSO, and serially 4-fold diluted to the 10th concentration gradient with 100% DMSO, followed by a 10-fold dilution in the compound buffer (50 mM HEPES. pH 7.5, 0.00015% Brij-35) to give intermediate dilutions of the compounds at a final concentration of 10 μM-0.04 nM containing 10% DMSO respectively, 5 μL of the dilutions were transferred into a black 384-well plate respectively.
IRAK4 was diluted to 2.5 nM in the kinase buffer (50 mM HEPES, pH 7.5, 0.00015% Brij-35, 2 mM DTT). 10 μL of the IRAK4 dilution was transferred to the 384-well plate and co-incubated with the compound for 10-15 min.
The substrate and ATP were diluted to 12.5 μM and 92.5 μM with reaction buffer (50 mM HEPES, pH 7.5, 0.00015% Brij-35, 10 mM MgCl2), respectively. 10 μL of the dilutions were transferred to a 384-well plate and incubated at 28° C. for 1 h respectively. The reaction was terminated by adding 25 μL of 50 mM EDTA to the 384-well plate.
The inhibition rates of IRAK4 by the compounds were calculated by measuring the rate of phosphorylated substrate using a Caliper EZ Reader (PerkinElmer) and the IC50 values were calculated by XL-fit software.

The test system of data set [1] is TNF-α release in LPS-induced Balb/c female mice. In words: Inhibition of TNF-α release in LPS-induced Balb/c female mice. It counts as in vivo, mouse. Also on record: concentration or dose not given beside the values. The settings on record: oral gavage 5 h before LPS induction, serum 1.5 h after stimulation. How it is done:
In the normal control groups, the animals received an intraperitoneal injection of normal saline (10 mL/kg) and in the model groups, the animals received LPS stimulation (Sigma CAT #L2630, i.p., 10 mL/kg, 0.2 mg/kg). During the assay, to the test compounds, DMSO, Solutol and 10 mM PBS were sequentially added to prepare a solution or suspension of required concentration for administration. For the vehicle, DMSO, Solutol and 10 mM PBS were mixed in a volume ratio of 5:15:80. In each of the groups, the animals were administered through oral gavage (10 mL/kg) 5 h before LPS (or saline) stimulation at predetermined doses, and euthanized with CO2 at 1.5 h after the stimulation for cardiac blood collection. The whole blood was not anticoagulated, incubated in wet ice for 1.5 h, and centrifuged at 2000×g at 4° C. for 10 min to separate the serum. The serum was frozen at −80° C. for TNF-α assay. Quantification of the TNF-α was done with TNF-α ELISA kit according to the manufacturer's instruction.

Data set [2] in a line: Stability in human liver microsomes. The format is in vitro ADME. The settings on record: for half-life at 1 μM: pH 7.4, ∞ = no obvious metabolism found during assay, read-out: Stability test in liver microsomes t1/2, Human. How it is done:
(§1) 1. Preparation of buffer C:
(§2) Buffer A: 1.0 L of 0.1 M monopotassium phosphate buffer (containing 1.0 mM EDTA);
(§3) Buffer A: 1.0 L of 0.1 M dipotassium phosphate buffer (containing 1.0 mM EDTA);
(§4) Buffer C: Buffer A was added to 700 mL of buffer B until pH reached 7.4.
(§5) The test compound and the reference were separately dissolved in DMSO to give 10 mM stocks.
(§6) 500 μM solution: 10 μL of 10 mM stock solution was added to 190 μL of acetonitrile;
(§7) 1.5 μM dosing solution (in liver microsome solution):
(§8) 18.75 μL of 20 mg/mL liver microsomes were added to 479.75 μL of buffer C, followed by 1.5 μL of 500 μM solution. The mixture was gently shaken to mix well.
(§9) NADPH was weighed, to which an appropriate amount of buffer C was added to prepare a 6 mM NADPH solution.
(§10) 5. 30 μL of 1.5 μM dosing solution was added to wells of a 96-well plate set for different time points (0 min, 5 min, 15 min, 30 min, 45 min) in duplicate.
(§11) 6. Preparation of 0 min samples: 135 μL of acetonitrile (containing internal standard) was added to the 0 min wells, followed by 15 μL of 6 mM NADPH solution.
(§12) 7. The 96-well plate containing 1.5 μM dosing solution and NADPH solution were preheated for 5 min in a water bath at 37° C.
(§13) 8. 15 μL of pre-heated 6 mM NADPH solution was added to wells set for 5 min, 15 min, 30 min and 45 min to start the reaction.
(§14) 9. At time points of 5 min, 15 min, 30 min and 45 min, the reaction was terminated by adding 135 μL of acetonitrile (containing internal standard). The mixtures were vortexed for 10 min and centrifuged at 5594×g for 15 min (Thermo Multifuge×3R).
(§15) 10. 50 μL of the supernatant was transferred to wells of a 96-well plate containing 50 μL of water. The samples were mixed and finally subjected to LC-MS/MS analysis.

The nature of data set [3]: Stability in rat liver microsomes. The settings on record: for Stability test in liver microsomes t1/2, Rat: ∞ = no obvious metabolism found during assay; for half-life at 1 μM: pH 7.4, ∞ = no obvious metabolism found during assay, read-out: Stability test in liver microsomes t1/2, Rat. It counts as in vitro ADME. Here is the method:
as §1, §2, §3, §4, §5, §6, §7, §8, §9, §10, §11, §12, §13, §14, §15

The nature of data set [4]: Stability in mouse liver microsomes. It counts as in vitro ADME. The settings on record: for half-life at 1 μM: pH 7.4, ∞ = no obvious metabolism found during assay, read-out: Stability test in liver microsomes t1/2, Mouse. How it is done: as §1, §2, §3, §4, §5, §6, §7, §8, §9, §10, §11, §12, §13, §14, §15
Where [5] appears, read: ∞ = no obvious metabolism found during assay.

As for `CC(C)(O)c1cc2nn([C@H]3CC[C@](C)(O)CC3)cc2cc1NC(=O)c1cccc(C(C)(F)F)n1` [MY-004-165], at human IRAK4, the IC50 is 4.2 nM. Moreover, the “Inhibition rate of TNF-α” value in data set [1] stood at 88.99%. The half-life at 1 μM in data set [2] was determined as 53.9 h. In data set [3], the “Stability test in liver microsomes t1/2, Rat” value is listed as “∞”. Besides, the “Stability test in liver microsomes t1/2, Mouse” value in data set [4] (setting [5]) was “∞”.

Take `COc1cc2nn([C@H]3CC[C@H](O)CC3)cc2cc1NC(=O)c1cccc(C(F)(F)F)n1` [MY-004-127-1]: the IC50 on human IRAK4 stood at 5.3 nM. In addition, the “Inhibition rate of TNF-α” value in data set [1] amounted to 89.29%. Also, the half-life at 1 μM was 12.8 h in data set [2], 5.1 h in data set [3] and 768 h in data set [4].

As to `CN(C)c1cc2nn([C@H]3CC[C@H](O)CC3)cc2cc1NC(=O)c1cccc(C(F)(F)F)n1` [MY-004-153], the IC50 on human IRAK4 was determined as 1.9 nM. Moreover, in data set [1], the “Inhibition rate of TNF-α” value is recorded as 88.42%. The “Stability test in liver microsomes t1/2, Human” value in data set [2] (setting [5]) is “∞”. In addition, the half-life at 1 μM in data set [3] came out at 4.17 h; in data set [4], 4.72 h.

For `COc1cc2nn([C@H]3CC[C@@](C)(O)CC3)cc2cc1NC(=O)c1cccc(C(F)(F)F)n1` [MY-004-126-2], the half-maximal inhibitory concentration (IC50) at human IRAK4 was 1 nM. The “Inhibition rate of TNF-α” value in data set [1] is reported as 94.11%. For the same compound, the results for the half-life at 1 μM in data set [2] and in data set [4] were 428 h and 13.4 h, respectively. The “Stability test in liver microsomes t1/2, Rat” value in data set [3] is listed as “∞”.

Turning to `CN(C)c1cc2nn([C@H]3C[C@H](C(C)(C)O)C3)cc2cc1NC(=O)c1cccc(C(F)(F)F)n1` [MY-004-089], on human IRAK4, the IC50 came out at 6.8 nM. Also, the “Inhibition rate of TNF-α” value in data set [1] is 91.27%. The half-life at 1 μM worked out at 35.6 h in data set [2], 4.87 h in data set [3] and 9.4 h in data set [4].

Turning to `COc1cc2nn([C@H]3CC[C@](C)(O)CC3)cc2cc1NC(=O)c1cccc(C(F)(F)F)n1` [MY-004-126-1], the IC50 at human IRAK4 was determined as 2.7 nM. For the same compound, the “Inhibition rate of TNF-α” value in data set [1] was 94.43%. Besides, the results for the half-life at 1 μM in data set [2], in data set [3] and in data set [4] were 7.82 h, 6.63 h and 5.9 h, respectively.
